Patent US10293004B2, “Butyrate-producing bacterium and use thereof” (KABUSHIKI KAISHA YAKULT HONSHA, priority 2014, dated 2019)

Experiments:
[1] = Turbidity (OD660) after anaerobic culture of bacterial strains in PYGA, PYSA or PYXA medium
Description: (§1) A frozen stock solution of each bacterial strain (a 10% (w/v) skim milk-2% sodium glutamate solution in which bacterial cells were suspended) (cell count: 2.0 to 5.5×10^10 cells/mL) was thawed, and the solution was inoculated at 1% to 4 mL of a PY liquid medium supplemented with 33 mM sodium acetate and 0.5 (w/v) % glucose (PYGA medium), followed by anaerobic culture at 37° C. for 24 hours. After the culture, the culture solution was inoculated at 1% to a fresh PYGA medium, followed by anaerobic culture at 37° C. for 24 hours. After the culture, the turbidity (OD660) of the culture solution was measured. Then, the culture solution was inoculated at 1% to a PY medium containing 0.5 (w/v) % L-sorbose or D-xylitol and 33 mM sodium acetate (the medium containing L-sorbose: PYSA, and the medium containing D-xylitol: PYXA), followed by anaerobic culture at 37° C. for 24 hours. Then, the turbidity (OD660) was measured.

[2] = Evaluation of ability to produce butyrate from indigestible saccharides (Example 3)
Text: Galactooligosaccharide (GOS), maltitol, D-mannitol, lactitol, isomalt, isomaltulose, L-sorbose and D-sorbitol were used as indigestible saccharides. These indigestible saccharides used, except for GOS, were reagent grade. GOS used was commercially available Oligomate 55N (Yakult Pharmaceutical Industry Co., Ltd.) from which monosaccharide and lactose fractions (fractions digestible and absorbable by the upper gastrointestinal tract) had been removed using an activated carbon column. Specifically, a saccharide solution diluted with purified water was added to a column packed with activated carbon (manufactured by Wako Pure Chemical Industries, Ltd.) swollen in purified water, and the column was washed with a 2% ethanol solution, followed by the elution of an indigestible fraction with a 50% ethanol solution. The eluate was dried under reduced pressure, and the obtained GOS saccharide solution was used.
A. hadrus YIT 10092^T (DSM 3119^T), which is a type strain of A. hadrus (a typical human intestinal butyrate-producing bacterium), and two isolates were used.
Each of these bacterial strains was anaerobically cultured at 37° C. for 24 hours in a PYA medium containing 33 mM sodium acetate supplemented with 0.5% D-glucose (PYGA medium). The culture solution was inoculated at 1% to a PYA medium containing 0.5 (w/v) % of each indigestible saccharide (test medium), followed by anaerobic culture at 37° C. for 24 hours. After the completion of the culture, the organic acid concentration in the culture solution was analyzed by ion-exclusion HPLC. The analysis conditions were the same as those described above in Example 2. After the quantification of the organic acid concentration, the amount of butyrate produced from each indigestible saccharide and the ratio of butyrate to total short-chain fatty acids were calculated according to the following expressions. (Amount of butyrate produced)=(Amount of butyrate in the test medium after culture)−(Amount of butyrate in a PYA medium without each indigestible saccharide after culture) (Ratio of butyrate)=(Amount of butyrate in the test medium after culture)/((Amount of acetate+Amount of propionate+Amount of butyrate) in the test medium after culture)×100 (Expression 3)

[3] = Biochemical properties: saccharide fermentability (API-ZYM, Rapid ID32A API, API KENKI 20A); design: key: +: positive reaction; −: negative reaction; +^w: weak reaction
Text: (§2) Commercially available API-ZYM, Rapid ID32A API, and API KENKI 20A (SYSMEX bioMerieux Co., Ltd.) were used in the testing of biochemical properties of various bacterial strains. The testing method followed the product manuals.

[4] = Amount of butyrate produced by culture in PYA medium supplemented with acetate and lactate; settings: PYA medium (33 mM sodium acetate) with 40 mM sodium lactate, 37° C. 24 hours, minus PYA without lactate
Description: Each bacterial solution cultured in a PYGA liquid medium under the same conditions as those described in the preceding paragraph 1) was inoculated at 1% to a PYA medium containing 33 mM sodium acetate and further supplemented with 40 mM sodium lactate, followed by anaerobic culture at 37° C. for 24 hours. After the completion of the culture, the organic acid concentration in the culture solution was analyzed by ion-exclusion HPLC. The analysis conditions were the same as those described in the preceding paragraph 1). The amount of butyrate produced was calculated according to (Expression 2). Amount of butyrate produced=(Amount of butyrate produced by culture for 24 hours in a PYA medium supplemented with 40 mM sodium lactate)−(Amount of butyrate produced by culture for 24 hours in a PYA medium without 40 mM sodium lactate) (Expression 2)

[5] = Biochemical properties: enzymatic activity (API-ZYM, Rapid ID32A API, API KENKI 20A); design: key: +: positive reaction; −: negative reaction; +^w: weak reaction
Text: as §2

[6] = Production of butyrate by each bacterial strain from L-sorbose and D-xylitol (ion-exclusion HPLC); settings: 24 hours, minus PYA blank
Description: as §1
After the completion of the culture, the organic acid concentration in the culture solution was quantified by ion-exclusion HPLC. In this operation, a culture solution in a PY medium supplemented with sodium acetate but without L-sorbose or D-xylitol (PYA medium) was used as a blank.
(HPLC Analysis Conditions) • Eluent: 15 mM perchloric acid-7% acetonitrile • pH adjuster: 15 mM perchloric acid-60 mM • tris(hydroxymethyl)aminomethane-7% acetonitrile • Separation column: Organic acid analysis column RSpak KC- • 811×2 (manufactured by Showa Denko K.K.) • Column temperature: 42° C. • Injected sample volume: 10 μL • Flow rate: 1.0 mL/min • Analysis time: 35 min • Detector: Waters 432 electric conductivity detector • Cell temperature: 45° C.
The amount of butyrate produced was calculated according to (Expression 1). Amount of butyrate produced=(Amount of butyrate produced by culture for 24 hours in a PYSA or PYXA medium)−(Amount of butyrate produced by culture for 24 hours in a PYA medium) (Expression 1)

- Acid phosphatase [5]: +
- Alkaline phosphatase [5]: +
- Esterase (C4) [5]: −
- Naphthol-AS-B1-phosphohydrolase [5]: +
- α-Glucosidase [5]: −
- β-Galactosidase [5]: +
- β-Galactosidase-6-phosphate [5]: −
Substance: A. hadrus (Eubacterium hadrum) YIT 12354 (NITE BP-01831)
- Turbidity (OD660) ([1]; after anaerobic culture at 37° C. for 24 hours in PYGA liquid medium): 2.76
- Turbidity (OD660) ([1]; anaerobic culture at 37° C. for 24 hours of 1% inoculum in PYSA (L-sorbose)): 2.26
- Turbidity (OD660) ([1]; anaerobic culture at 37° C. for 24 hours of 1% inoculum in PYXA (D-xylitol)): 1.09
- ability to utilize indigestible saccharides ([2]; PYA medium with 0.5 (w/v) % of each indigestible saccharide, versus type strain, FIGS. 3 and 4): more than the type strain YIT 10092^T
- Amount of butyrate produced ([2]; from indigestible saccharides, versus type strain, FIG. 3): larger
- ratio of butyrate to total short-chain fatty acids ([2]; versus type strain YIT 10092^T, FIG. 4): higher than that of the type strain YIT 10092^T
- Aesculin [3]: −
- D-Cellobiose [3]: −
- D-Mannitol [3]: +
- D-Raffinose [3]: +^w
- D-Xylose [3]: +
- Glycerol [3]: −
- L-Arabinose [3]: +
- L-Rhamnose [3]: −
- L-Sorbitol [3]: +
- Mallose [3]: +^w
- Salicin [3]: −
- Amount of butyrate produced [4]: 16.5 mmol/L
- Amount of butyrate produced ([6]; D-Xylitol 0.5 (w/v) %, PYXA medium): 31.0 mmol/L
- Amount of butyrate produced ([6]; L-Sorbose 0.5 (w/v) %, PYSA medium): 14.8 mmol/L
